Publication PMC8409945, “In silico identification and experimental validation of cellular uptake and intracellular labeling by a new cell penetrating peptide derived from CDN1” (Drug Delivery, 2021)

How the values were obtained:
[1] = Peptide aggregation assay by native PAGE; format: physicochemical; conditions: 4 µl peptide 500 µM in PBS, 6.5% native PAGE; Figure S5(B)
cells = test: Cellular uptake of FITC-labeled peptides: comparison of CPPs, temperature and inhibitors (cell line not stated); format: cell-based; conditions: 1 h
Method: (§1) All cells (thawed cells were passaged less than 5 times) were suspended in 0.5 ml media and cultured in a 24-well plate at a concentration of 1.6 × 10^5 cells per well overnight. […] After incubation, the cells were washed with PBS three times and then imaged by fluorescence microscopy with 20 times lens (Nikon, Tokyo, Japan).
(§2) To determine the penetration efficiency of CPP, the cellular uptake of the indicated concentration of CPP was quantified by multimode spectrophotometry Peptide incubation. The washing step was the same as above, followed by cell lysate collection with 0.3 ml/well-lysing buffer (0.1 M NaOH) for 10 minutes, and then serially centrifuged at 110 g for 5 minutes. A plate-reader spectrophotometer (Tecan, Mannedorf, Switzerland) was used to quantify the fluorescence intensity of each well’s supernatant at the wavelengths of 485 nm in excitation and 535 nm in emission. The protein concentration of supernatant measured by Bradford assay was used to normalize fluorescence intensity. The fluorescence of cellular uptake was expressed as intensity per mg of total cellular protein. Experiments of quantification indicated in this paper were repeated at least three times.

HepG2 cells = test: Cellular uptake of FITC-labeled peptides, fluorescence microscopy and lysate fluorescence quantification; format: cell-based, human
Method: as §1, §2

## FITC-(Acp)-RKRRQTSMTDFYHSKRRLIFSKRK [P2]
[1]
  Aggregation propensity by native PAGE: a single band of P2 and without apparent aggregation
cells; FITC-P2 5 µM, different temperature, 3 replications, Figure 5(A,B)
  Penetrating efficiency at different temperature: temperature dependent
cells; FITC-P2 5 µM, NaN3, NH4Cl, Heparin, Serum, MβCD, Wortmannin, hyperosmotic sucrose, Chlorpromazine, EIPA, 3 replications, Figure 5(C,D)
  Penetration efficiency in the presence of endocytosis-related inhibitors: significantly decrease
cells; FITC-P2 5 µM, wortmannin and hyperosmotic sucrose, Figure 5(C,D)
  Penetration in the presence of wortmannin and hyperosmotic sucrose: slightly blocked
cells; FITC-labeled peptides 5 µM, microscopy and fluorescence intensity normalized to protein, 3 replications, Figure 4(C,D)
  Penetration efficiency compared with well-known CPPs: higher penetration efficiency than MT23 but lower than TAT and hPP10 and Dot1l
HepG2 cells
  Fluorescence microscopy and normalized fluorescence intensity versus incubation time: significantly increased with incubation time
Mouse erythrocytes
  Red blood cell membrane damage (hemolysis): did not observe red blood cell membrane damage
